Here are results for 26 compounds from patent US9187464B2, “TRPV4 antagonists” (GlaxoSmithKline Intellectual Property (No. 2) Limited, priority 2011, dated 2015).

The structures appear in SMILES notation.

This test has as its target T1, human TRPV4 (Homo sapiens, UniProt Q9HBA0).
T1 construct: expressed in transfected cells; host or cells: HEK-293-MSR-II cells transduced with 1% BacMam virus
The test is described as follows: Ligand-gated assay (Fluo4 calcium, FLIPR; inhibition of agonist-induced activation). The class given is cell-based. The conditions noted are these: HEK-293-MSR-II cells transduced with BacMam human TRPV4; agonist at EC80. The method in brief:
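HEK-293-MSR-II cells BacMam-transduced with human TRPV4, loaded with 2 uM Fluo-4. Compound preincubated 10 min at room temperature in HBSS pH 7.4 plus 0.01% Chaps, then agonist added at its EC80. Inhibition of agonist-evoked calcium rise read on FLIPR; IC50 reported.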

T1 sequence (Q9HBA0 whole entry): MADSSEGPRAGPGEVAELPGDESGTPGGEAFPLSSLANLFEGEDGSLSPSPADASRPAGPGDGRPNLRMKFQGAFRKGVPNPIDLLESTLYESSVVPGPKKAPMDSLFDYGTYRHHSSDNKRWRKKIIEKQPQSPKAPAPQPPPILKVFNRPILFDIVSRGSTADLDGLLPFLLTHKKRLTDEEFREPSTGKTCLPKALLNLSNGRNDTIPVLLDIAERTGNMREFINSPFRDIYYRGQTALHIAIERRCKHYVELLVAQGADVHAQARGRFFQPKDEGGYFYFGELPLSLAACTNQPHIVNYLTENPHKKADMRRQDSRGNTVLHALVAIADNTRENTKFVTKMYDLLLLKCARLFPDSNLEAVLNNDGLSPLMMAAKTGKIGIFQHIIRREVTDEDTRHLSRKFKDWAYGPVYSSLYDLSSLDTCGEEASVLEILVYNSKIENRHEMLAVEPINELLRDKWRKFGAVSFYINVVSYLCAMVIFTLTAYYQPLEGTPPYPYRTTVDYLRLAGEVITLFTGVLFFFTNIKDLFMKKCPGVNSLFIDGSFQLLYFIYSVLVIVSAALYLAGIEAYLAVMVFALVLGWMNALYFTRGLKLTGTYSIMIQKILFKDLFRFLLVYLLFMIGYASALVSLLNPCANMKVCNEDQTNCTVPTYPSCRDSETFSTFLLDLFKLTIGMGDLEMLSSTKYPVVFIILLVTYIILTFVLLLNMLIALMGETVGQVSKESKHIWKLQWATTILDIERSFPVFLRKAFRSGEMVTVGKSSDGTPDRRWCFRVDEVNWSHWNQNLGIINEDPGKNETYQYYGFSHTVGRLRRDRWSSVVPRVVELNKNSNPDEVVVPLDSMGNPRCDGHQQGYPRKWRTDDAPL

As usually defined, the IC50 is the concentration that gives 50% inhibition. As to `N#Cc1ccc2ncn(C[C@H]3CCC[C@]4(C3)CN(Cc3cn(-c5cccc(C(F)(F)F)c5)nn3)C(=O)O4)c2c1` [Example 93, 1-{[(5S,7S)-2-oxo-3-({1-[3-(trifluoromethyl)phenyl]-1H-1,2,3-triazol-4-yl}methyl)-1-oxa-3-azaspiro[4.5]dec-7-yl]methyl}-1H-benzimidazole-6-carbonitrile], the IC50 lay within 0.1 to 10 nM.
Regarding `N#Cc1ccc2ncn(C[C@H]3CCC[C@]4(C3)CN(Cc3cn(-c5cccc(F)c5)nn3)C(=O)O4)c2c1` [Example 94, 1-[((5S,7S)-3-{[1-(3-fluorophenyl)-1H-1,2,3-triazol-4-yl]methyl}-2-oxo-1-oxa-3-azaspiro[4.5]dec-7-yl)methyl]-1H-benzimidazole-6-carbonitrile], the concentration for half-maximal inhibition (IC50) lay in the range of 10 to 50 nM.
The result for `COc1cccc(-n2cc(CN3C[C@@]4(CCC[C@H](Cn5cnc6ccc(C#N)cc65)C4)OC3=O)nn2)c1` [Example 95, 1-{[(5S,7S)-3-({1-[3-(methyloxy)phenyl]-1H-1,2,3-triazol-4-yl}methyl)-2-oxo-1-oxa-3-azaspiro[4.5]dec-7-yl]methyl}-1H-benzimidazole-6-carbonitrile] reads 10 to 50 nM; that for `Cc1cccc(-n2cc(CN3C[C@@]4(CCC[C@H](Cn5cnc6ccc(C#N)cc65)C4)OC3=O)nn2)c1` [Example 96, 1-[((5S,7S)-3-{[1-(3-methylphenyl)-1H-1,2,3-triazol-4-yl]methyl}-2-oxo-1-oxa-3-azaspiro[4.5]dec-7-yl)methyl]-1H-benzimidazole-6-carbonitrile], 10 to 50 nM.
Next, `N#Cc1ccc2ncn(C[C@H]3CCC[C@]4(C3)CN(Cc3cn(C5CCCCC5)nn3)C(=O)O4)c2c1` [Example 97, 1-({(5S,7S)-3-[(1-cyclohexaneyl-1H-1,2,3-triazol-4-yl)methyl]-2-oxo-1-oxa-3-azaspiro[4.5]dec-7-yl}methyl)-1H-benzimidazole-6-carbonitrile]: 10 to 50 nM; `N#Cc1ccc2ncn(C[C@H]3CCC[C@]4(C3)CN(Cc3cn(-c5ccc(C#N)c(C(F)(F)F)c5)nn3)C(=O)O4)c2c1` [Example 98, 1-{[(5S,7S)-3-({1-[4-cyano-3-(trifluoromethyl)phenyl]-1H-1,2,3-triazol-4-yl}methyl)-2-oxo-1-oxa-C azaspiro[4.5]dec-7-yl]methyl}-1H benzimidazole-6-carbonitrile]: 0.1 to 10 nM; `N#Cc1cc(Cl)cc(-n2cc(CN3C[C@@]4(CCC[C@H](Cn5cnc6ccc(C#N)cc65)C4)OC3=O)nn2)c1` [Example 99, 1-[((5S,7S)-3-{[1-(3-chloro-5-cyanophenyl)-1H-1,2,3-triazol-4-yl]methyl}-2-oxo-1-oxa-3-azaspiro[4.5]dec-7-yl)methyl]-1H-benzimidazole-6-carbonitrile]: 0.1 to 10 nM.
`N#Cc1ccc2ncn(C[C@H]3CCC[C@]4(C3)CN(Cc3cn(-c5ccnc(C(F)(F)F)c5)nn3)C(=O)O4)c2c1` [Example 100, 1-{[(5S,7S)-2-oxo-3-({1-[2-(trifluoromethyl)-4-pyridinyl]-1H-1,2,3-triazol-4-yl}methyl)-1-oxa-3-azaspiro[4.5]dec-7-yl]methyl}-1H-benzimidazole-6-carbonitrile]: the IC50 is 0.1 to 10 nM.
With `N#Cc1ccc2ncn(C[C@H]3CCC[C@]4(C3)CN(Cc3cn(-c5cc(F)cc(F)c5)nn3)C(=O)O4)c2c1` [Example 101, 1-[((5S,7S)-3-{[1-(3,5-difluorophenyl)-1H-1,2,3-triazol-4-yl]methyl}-2-oxo-1-oxa-3-azaspiro[4.5]dec-7-yl)methyl]-1H-benzimidazole-6-carbonitrile], the IC50 lay in the range of 10 to 50 nM.
As for `N#Cc1ccc2ncn(C[C@H]3CCC[C@]4(C3)CN(Cc3cn(-c5ccc(C(F)(F)F)cc5)nn3)C(=O)O4)c2c1` [Example 102, 1-{[(5S,7S)-2-oxo-3-({1-[4-(trifluoromethyl)phenyl]-1H-1,2,3-triazol-4-yl}methyl)-1-oxa-3-azaspiro[4.5]dec-7-yl]methyl}-1H-benzimidazole-6-carbonitrile], the IC50 was 0.1 to 10 nM.
`CC(C)n1cc(CN2C[C@@]3(CCC[C@](C)(Cn4cnc5ccc(C#N)cc54)C3)OC2=O)nn1` [Example 104, 1-[((5S,7S)-7-methyl-3-{[1-(1-methylethyl)-1H-1,2,3-triazol-4-yl]methyl}-2-oxo-1-oxa-3-azaspiro[4.5]dec-7-yl)methyl]-1H-benzimidazole-6-carbonitrile]: the half-inhibitory concentration (IC50) was in the range of 50 to 500 nM.
Next, `C[C@]1(Cn2cnc3ccc(C#N)cc32)CCC[C@]2(CN(Cc3cn(-c4ccccc4)nn3)C(=O)O2)C1` [Example 105, 1-({(5R,7S)-7-methyl-2-oxo-3-[(1-phenyl-1H-1,2,3-triazol-4-yl)methyl]-1-oxa-3-azaspiro[4.5]dec-7-yl}methyl)-1H benzimidazole-6-carbonitrile]: 10 to 50 nM.
The result for `N#Cc1ccc2ncn(C[C@H]3CCC[C@]4(C3)CN(Cc3cn(-c5cncc(Cl)c5)nn3)C(=O)O4)c2c1` [Example 106, 1-[((5S,7S)-3-{[1-(5-chloro-3-pyridinyl)-1H-1,2,3-triazol-4-yl]methyl}-2-oxo-1-oxa-3-azaspiro[4.5]dec-7-yl)methyl]-1H-benzimidazole-6-carbonitrile] reads 10 to 50 nM; that for `CC(C)(C#N)c1noc(N2C[C@@]3(CCC[C@](C)(Cn4cnc5ccc(C#N)cc54)C3)OC2=O)c1Cl` [Example 107, 1-(((5S,7S)-3-(4-chloro-3-(2-cyanopropan-2-yl)isoxazol-5-yl)-7-methyl-2-oxo-1-oxa-3-azaspiro[4.5]decan-7-yl)methyl)-1H-benzo[d]imidazole-6-carbonitrile], 0.1 to 10 nM; that for `CC(C)(C)c1noc(N2C[C@@]3(CCC[C@](C)(Cn4cnc5ccc(C#N)cc54)C3)OC2=O)c1Br` [Example 108, 1-({(5S,7S)-3-[4-bromo-3-(1,1-dimethylethyl)-5-isoxazolyl]-7-methyl-2-oxo-1-oxa-3-azaspiro[4.5]dec-7-yl}methyl)-1H-benzimidazole-6-carbonitrile], 0.1 to 10 nM.
The result for `COc1ncccc1N1C[C@@]2(CCC[C@](C)(Cn3cnc4ccc(C#N)cc43)C2)OC1=O` [Example 109, 1-[{(5S,7S)-7-methyl-3-[2-(methyloxy)-3-pyridinyl]-2-oxo-1-oxa-3-azaspiro[4.5]dec-7-yl}methyl]-1H-benzimidazole-6-carbonitrile] reads 50 to 500 nM; that for `COc1ccc(N2C[C@@]3(CCC[C@](C)(Cn4cnc5ccc(C#N)cc54)C3)OC2=O)c(OC)n1` [Example 110, 1-({(5S,7S)-3-[2,6-bis(methyloxy)-3-pyridinyl]-7-methyl-2-oxo-1-oxa-3-azaspiro[4.5]dec-7-yl}methyl)-1H-benzimidazole-6-carbonitrile], 0.1 to 10 nM; that for `COc1cc(C)c(N2C[C@@]3(CCC[C@H](Cn4cnc5ccc(C#N)cc54)C3)OC2=O)cn1` [Example 111, 1-({(5S,7S)-3-[4-methyl-6-(methyloxy)-3-pyridinyl]-2-oxo-1-oxa-3-azaspiro[4.5]dec-7-yl}methyl)-1H-benzimidazole-6-carbonitrile], 10 to 50 nM.
For `C[C@]1(Cn2cnc3ccc(C#N)cc32)CCC[C@@]2(CN(c3ncc(Cl)cc3Cl)C(=O)O2)C1` [Example 112, 1-(((7S)-3-(3,5-dichloropyridin-2-yl)-7-methyl-2-oxo-1-oxa-3-azaspiro[4.5]decan-7-yl)methyl)-1H-benzo[d]imidazole-6-carbonitrile], the half-inhibitory concentration (IC50) lay in the range of 0.1 to 10 nM.
Next, `CCOc1ncc(N2C[C@@]3(CCC[C@](C)(Cn4cnc5ccc(C#N)cc54)C3)OC2=O)cn1` [Example 113, 1-(((5S,7S)-3-(2-ethoxypyrimidin-5-yl)-7-methyl-2-oxo-1-oxa-3-azaspiro[4.5]decan-7-yl)methyl)-1H-benzo[d]imidazole-6-carbonitrile]: 10 to 50 nM.
The result for `C[C@]1(Cn2cnc3ccc(C#N)cc32)CCC[C@@]2(CN(c3ncc(Cl)cc3F)C(=O)O2)C1` [Example 114, 1-(((5S,7S)-3-(5-chloro-3-fluoropyridin-2-yl)-7-methyl-2-oxo-1-oxa-3-azaspiro[4.5]decan-7-yl)methyl)-1H-benzo[d]imidazole-6-carbonitrile] reads 0.1 to 10 nM.
In the case of `C[C@]1(Cn2cnc3ccc(C#N)cc32)CCC[C@@]2(CN(c3cnc(C(F)(F)F)cn3)C(=O)O2)C1` [Example 115, 1-(((5S,7S)-7-methyl-2-oxo-3-(5-(trifluoromethyl)pyrazin-2-yl)-1-oxa-3-azaspiro[4.5]decan-7-yl)methyl)-1H-benzo[d]imidazole-6-carbonitrile], the IC50 was in the range of 0.1 to 10 nM.
The result for `CC(C)(C)c1ncc(N2C[C@@]3(CCC[C@H](Cn4cnc5ccc(C#N)cc54)C3)OC2=O)cn1` [Example 116, 1-(((5S,7S)-3-(2-(tert-butyl)pyrimidin-5-yl)-2-oxo-1-oxa-3-azaspiro[4.5]decan-7-yl)methyl)-1H-benzo[d]imidazole-6-carbonitrile] reads 10 to 50 nM; that for `Cc1cnc(N2C[C@@]3(CCC[C@](C)(Cn4cnc5ccc(C#N)cc54)C3)OC2=O)cn1` [Example 117, 1-(((5S,7S)-7-methyl-3-(5-methylpyrazin-2-yl)-2-oxo-1-oxa-3-azaspiro[4.5]decan-7-yl)methyl)-1H-benzo[d]imidazole-6-carbonitrile], 50 to 500 nM; that for `CCOc1cc(C)c(N2C[C@@]3(CCC[C@](C)(Cn4cnc5ccc(C#N)cc54)C3)OC2=O)cn1` [Example 118, 1-(((5S,7S)-3-(6-ethoxy-4-methylpyridin-3-yl)-7-methyl-2-oxo-1-oxa-3-azaspiro[4.5]decan-7-yl)methyl)-1H-benzo[d]imidazole-6-carbonitrile], 0.1 to 10 nM.
The result for `Cc1cc(Cl)ncc1N1C[C@@]2(CCC[C@](C)(Cn3cnc4ccc(C#N)cc43)C2)OC1=O` [Example 119, 1-(((5S,7S)-3-(6-chloro-4-methylpyridin-3-yl)-7-methyl-2-oxo-1-oxa-3-azaspiro[4.5]decan-7-yl)methyl)-1H-benzo[d]imidazole-6-carbonitrile] reads 0.1 to 10 nM.
